Several values for one entry are separate records, joined by “and”; a condition that tells them apart may be missing. Identical values can stand only once. Values belong to the compound of their own block, whether it stands above or below them.
Assays:
[1] = Colorimetry (CIEL*c*h*, ΔE) of pigment solutions with ascorbic acid; type: physicochemical
Procedure: (§1) The semi-purified chokeberry extract, the isolated cyanidin-3-galactoside, and the purified 5-carboxypyranocyanidin-3-galactoside were diluted in pH 3.0 citrate buffer (0.1 M adjusted with HCl) until an absorbance of 1.0 at their respective λmax was reached. Levels of AA of 250, 500, and 1000 mg/L were added using a concentrated ascorbic acid stock solution, and a control consisting of each pigment with the absence of AA was maintained. The control consisted of the pigment in the buffer in the absence of AA. An additional test was performed with the same model juice using hydrogen peroxide, a known degradation product of AA. To determine if AA bleaching was due to formation of H2O2, direct addition of it was investigated. In place of added AA, a 62.2 μL of a 0.3% peroxide solution was added to match the molar equivalency of the 500 mg/L AA level, which was 2.84 mM.
(§2) All samples were brought to the same final volume with additional citrate buffer. […] Samples were stored in the dark at 25° C. in an incubator. UV-Vis spectrophotometry, colorimetry, and HPLC analyses were conducted over a 5 day period following the addition of ascorbic acid or hydrogen peroxide. UV-Vis spectral data was collected every hour for the first 8 hours, and then at 12 hr, and daily from that point on for 5 days. […] HPLC analyses were conducted on days 0, 1, 3, and 5. All treatments were run in triplicate.
Using UV-Vis spectral data (5 nm steps, 380-700 nm) in combination with software written for color conversion, absorbance data was translated to CIE-L*c*h*. The calculations for CIE-L*c*h* implemented by the software used CIE relative spectral power distribution for a D65 standard illuminants and 10° observer angle function. Color data is reported as L* (lightness), c* (chroma), and h* (hue angle).
Total color changes (ΔE) were calculated as the color change from day 0 to 5 for each respective treatment, and presented in Table 4.
Numbers are means of 3 replications, followed by (standard deviations). ΔE: total color change from day 0 (control) to day 5.

[2] = Direct hydrogen peroxide addition to pigment solutions (HPLC, absorbance); type: physicochemical
Procedure: as §1
All samples were brought to the same final volume with additional citrate buffer. […] Samples were stored in the dark at 25° C. in an incubator. UV-Vis spectrophotometry, colorimetry, and HPLC analyses were conducted over a 5 day period following the addition of ascorbic acid or hydrogen peroxide. […]
Auto-oxidation of AA in solution can give rise to H2O2 formation, a powerful bleaching agent that can further lead to rapid ACN degradation. […] HPLC profiles as well as maximum absorbance and λmax of the solutions were evaluated.

[3] = HPLC monitoring of pigment peaks with ascorbic acid; type: physicochemical
Procedure: Prior to experimentation, pigments were evaluated for purity by using an analytical HPLC only different from the previously listed one by the use of different pumps (LC-20AD, Shimadzu, Md., US). Purified pigments were filtered using the Phenex RC 0.45 μm membranes. A binary system with 1 mL/min flow rate was used: solvent A: 4.5% formic acid in HPLC grade water and solvent B: HPLC grade acetonitrile. The gradient began with an isocratic flow of 6% solvent B for 17 minutes (elution of primary anthocyanins), increasing to 15% solvent B by 45 minutes (elution of primary pyranoanthocyanins), and to 40% solvent B by 50 minutes. A 10 μL injection volume was loaded onto a Phenomenex Kinetix 5 μm EVO C18 100 A. 150×4.6 mm column and Phenomenex Ultra UHPLC EVO C18 guard cartridge attached.
as §1, §2
Prepared solutions were monitored to determine the formation of potential degradation products or profile changes. Using the analytical HPLC system and conditions described, chromatograms were monitored with the max plot (260-700 nm), 490 nm (near λmax of 5-carboxypyranocyanidin-3-galactoside), and 520 nm (near ma of cyanidin-3-galactoside). A max plot of 470-520 nm was later added to standardize changes in the AUC for all three pigments and their degradation products.

[4] = UV-Vis absorbance loss and first-order bleaching kinetics of pigment solutions with ascorbic acid (pH 3.0 citrate buffer, 25° C., dark); type: physicochemical; details: for K (reaction rate, first-order) / t1/2: 25° C. dark
Procedure: The semi-purified chokeberry extract, the isolated cyanidin-3-galactoside, and the purified 5-carboxypyranocyanidin-3-galactoside were diluted in pH 3.0 citrate buffer (0.1 M adjusted with HCl) until an absorbance of 1.0 at their respective λmax was reached. Levels of AA of 250, 500, and 1000 mg/L were added using a concentrated ascorbic acid stock solution, and a control consisting of each pigment with the absence of AA was maintained. The control consisted of the pigment in the buffer in the absence of AA. An additional test was performed with the same model juice using hydrogen peroxide, a known degradation product of AA. To determine if AA bleaching was due to formation of H2O2, direct addition of it was investigated. In place of added AA, a 62.2 μL of a 0.3% peroxide solution was added to match the molar equivalency of the 500 mg/L AA level, which was 2.84 mM. All samples were brought to the same final volume with additional citrate buffer. […] Samples were stored in the dark at 25° C. in an incubator. UV-Vis spectrophotometry, colorimetry, and HPLC analyses were conducted over a 5 day period following the addition of ascorbic acid or hydrogen peroxide. UV-Vis spectral data was collected every hour for the first 8 hours, and then at 12 hr, and daily from that point on for 5 days. […] HPLC analyses were conducted on days 0, 1, 3, and 5. All treatments were run in triplicate. A SpectraMax 190 Microplate Reader (Molecular Devices, Sunnyvale, Calif., U.S.) with a 96-well plate (poly-D-lysine coated polystyrene) were used for the evaluation of absorbance from 380-700 nm, 1 nm intervals. Aliquots (200 uL) of samples were loaded into individual wells, and a blank consisted of the same citrate buffer used. Because of the rapid nature of AA-induced color loss, degradation kinetics were evaluated in terms of change in maximum absorbance at the original λmax over time. Bleaching is a first-order reaction, typical of ACN degradation, and was modeled as such in determining the reaction rate and half-life. The decrease in maximum absorbance correlated with an increase in lightness (L*) as well as the decrease in chroma (c*). The reduction in maximum absorbance did closely follow first-order kinetics for chokeberry extract and cyanidin-3-galactoside but slightly deviated for 5-carboxypyranocyanidin-3-galactoside. […] The kinetics results for each pigment and AA level can be found in Table 3 below.

[5] = reported in literature; cited from earlier work

Chroma Day 0 ([1]; 250 mg/L AA): 55.2 (0.4)
Chroma Day 5 ([1]; 250 mg/L AA): 43.2 (0.2)
Hue Angle Day 0 ([1]; 250 mg/L AA): 50.7 (0.2) °
Hue Angle Day 5 ([1]; 250 mg/L AA): 46.9 (.3) °
Lightness Day 0 ([1]; 250 mg/L AA): 81.9 (0.1)
Lightness Day 5 ([1]; 250 mg/L AA): 82.8 (0.3)
ΔE Over 5 days ([1]; 250 mg/L AA): 4.5 (0.2)
Chroma Day 0 ([1]; 500 mg/L AA): 54.7 (0.3)
Chroma Day 5 ([1]; 500 mg/L AA): 39.2 (0.3)
Hue Angle Day 0 ([1]; 500 mg/L AA): 50.4 (0.1) °
Hue Angle Day 5 ([1]; 500 mg/L AA): 48.3 (0.4) °
Lightness Day 0 ([1]; 500 mg/L AA): 82.1(0.3)
Lightness Day 5 ([1]; 500 mg/L AA): 83.6 (0.4)
ΔE Over 5 days ([1]; 500 mg/L AA): 5.0 (0.2)
Chroma Day 5 ([1]; 1000 mg/L AA): 36.2 (0.3)
Hue Angle Day 0 ([1]; 1000 mg/L AA): 51.0 ° and 51.0 (0.1) °
Hue Angle Day 5 ([1]; 1000 mg/L AA): 57.1 ° and 57.1 (0.7) °
Lightness Day 5 ([1]; 1000 mg/L AA): 83.7 (0.2)
ΔE Over 5 days ([1]; 1000 mg/L AA): 5.2 (0.5)
L* after 48 hours ([1]; 1000 mg/L AA, 48 hours): 86.6
ΔE Over 5 days ([1]; 1000 mg/L AA, listed as 5-Carboxypyranocyanidin-3-galactoside): 5.2
Chroma Day 0 ([1]; Control, no AA): 54.3 (0.7)
Chroma Day 5 ([1]; Control, no AA): 49.9 (1.3)
Hue Angle Day 0 ([1]; Control, no AA): 50.0 (0.2) °
Hue Angle Day 5 ([1]; Control, no AA): 47.5 (0.6) °
Lightness Day 5 ([1]; Control, no AA): 82.2 (0.6)
ΔE Over 5 days ([1]; Control, no AA): 2.1 (0.4)
Lightness Day 0 ([1]; Control, no AA, mean (SD), n=3): 82.2 (0.2)
time until significant change in chroma as compared to the control ([1]; all levels of AA): 48 h
initial hue angle ([1]; day 0): 50 °
target peaks left after 1 day ([3]; 1000 mg/L AA, HPLC): 10%
reduction of pigment peak by day 1 ([3]; 1 g/L AA, HPLC AUC): 93%
reduction of pigment peak by day 5 ([3]; 1 g/L AA, HPLC AUC): 99%
K (reaction rate, first-order) ([4]; 250 mg/L AA): 2.69E−03
t1/2 ([4]; 250 mg/L AA): 258 h
reduction in maximum absorbance ([4]; 500 mg/L AA, 5 day period): 38%
λmax after hypsochromic change ([4]; 500 mg/L AA, after treatment): 484 nm
λmax before hypsochromic change ([4]; 500 mg/L AA, start): 491 nm
K (reaction rate, first-order) ([4]; 500 mg/L AA): 4.61E−03
t1/2 ([4]; 500 mg/L AA): 150 h
K (reaction rate, first-order) ([4]; 1000 mg/L AA): 1.08E−02
t1/2 ([4]; 1000 mg/L AA): 64 h
K (reaction rate, first-order) ([4]; Control, no AA, absorbance at λvis-max): 7.08E−04
time before a significant difference (p<0.05) in maximum absorbance from time 0 ([4]; all levels of AA added): 24 h
hypsochromic shift of λmax ([4]; over the 5 days of AA treatment, regardless of AA level): ≤ 10 nm
Structure (SMILES): O=C(O)C1=Cc2c(O[C@@H]3O[C@H](CO)[C@H](O)[C@H](O)[C@H]3O)c(-c3ccc(O)c(O)c3)[o+]c3cc(O)cc(c23)O1 [5-carboxypyranocyanidin-3-galactoside]
resistance to bleaching with H2O2 [2]: more resistant to bleaching compared to anthocyanins

Structure (SMILES): OC[C@H]1O[C@@H](Oc2cc3c(O[C@@H]4O[C@H](CO)[C@@H](O)[C@H](O)[C@H]4O)cc(O)cc3[o+]c2-c2ccc(O)c(O)c2)[C@H](O)[C@@H](O)[C@@H]1O [Cy-3-glu-5-glu]
pKh [5]: 2.23

From patent US20180346731A1, “Formation of Stable Pyranoanthocyanins, and Uses Thereof as Sources of Natural Color” (Ohio State Innovation Foundation, priority 2017, published 2018)
